Key:
[1] = Induced degradation of 5-azacytidine in solid state (observation, FT-IR, HPLC); type: physicochemical; settings: for Area (%) at RRT 1.00 (5-azacytidine) / Area (%) of peak at RRT 0.63 / Area (%) of peak at RRT 2.01 / Area (%) of peak at RRT 2.05 / Total impurities (%): solid
Procedure: (§1) The HPLC measurements were performed using a system equipped with an Inertsil C18 column (ODS-2, 5 microns, 250×4.6 mm (ODS-167)). Other parameters of the system were as follows: • Detection: UV detector operated on 242 nm • Column temperature: 20° C. • Run time: 45 minutes • Injection volume: 10 μl • Flow rate: 1.0 ml/minute • Sample set temperature: 5° C. • Sample concentration: about 1.65 mg/ml • Diluent: Mixture of 30% 10 mM ammonium acetate and 70% THF
(§2) Analyses were performed using the following mobile phase • Mobile Phase (Eluent) A: 10 mM ammonium acetate • Mobile Phase (Eluent) B: 60% 10 mM ammonium acetate, 40% MeOH
The sample was placed in a UV chamber and exposed to UV light for 48 hours. • Accelerated conditions [40±2° C./75±5% Relative Humidity (RH)].
At the end of the stipulated time period, the physical descriptions of each sample were noted down. Identification tests were performed by FT-IR, and purity checks were performed by HPLC analysis. The protected sample, as defined herein, is the reference storage material used for carrying out the experiments detailed in Tables 7 and 8.

[2] = Solution stability of 5-azacytidine in the HPLC diluent; type: physicochemical; settings: HPLC diluent, about 1.65 mg/ml
Procedure: as §1, §2

[3] = accelerated conditions (40 ± 2° C., 75 ± 5% RH), 48 hours
[4] = exposure to ambient conditions, visible light 48 hours
[5] = exposure to elevated temperature (105° C.), 48 hours

## Nc1ncn([C@@H]2O[C@H](CO)[C@@H](O)[C@H]2O)c(=O)n1 [5-azacytidine, 4-amino-1-β-D-ribofuranosyl-1,3,5-s-triazine-2(1H)-one]
[1]; solid state induced degradation
  FT-IR spectra changes: did not show any significant changes
[1]; solid state, Tables 7 and 8
  Stability in solid state (HPLC analysis): stable to heat and IJV light
[1]; solid state, exposed to an elevated temperature
  Change in color of the sample: slight change in color
[1]; [3]
  Area (%) at RRT 1.00 (5-azacytidine): 97.04%
  Area (%) of peak at RRT 0.63: 1.90%
  Area (%) of peak at RRT 2.01: 0.80%
  Area (%) of peak at RRT 2.05: 0.14%
  Total impurities (%): 2.96%
[1]; exposure to UV light, 48 hours
  Area (%) at RRT 1.00 (5-azacytidine): 96.64%
  Area (%) of peak at RRT 0.63: 1.66%
  Area (%) of peak at RRT 2.01: 1.35%
  Area (%) of peak at RRT 2.05: 0.24%
  Total impurities (%): 3.36%
[1]; [4]
  Area (%) at RRT 1.00 (5-azacytidine): 96.75%
  Area (%) of peak at RRT 0.63: 1.52%
  Area (%) of peak at RRT 2.01: 1.36%
  Area (%) of peak at RRT 2.05: 0.27%
  Total impurities (%): 3.25%
[1]; [5]
  Area (%) at RRT 1.00 (5-azacytidine): 96.61%
  Area (%) of peak at RRT 0.63: 2.00%
  Area (%) of peak at RRT 2.01: 1.01%
  Area (%) of peak at RRT 2.05: 0.17%
  Total impurities (%): 3.39%
[1]; protected sample (storage)
  Area (%) at RRT 1.00 (5-azacytidine): 96.72%
  Area (%) of peak at RRT 0.63: 1.55%
  Area (%) of peak at RRT 2.01: 1.37%
  Area (%) of peak at RRT 2.05: 0.24%
  Total impurities (%): 3.28%
[2]; 0 hours
  Area (%) at RRT 1.00 (5-azacytidine): 96.72%
  Area (%) of peak at RRT 0.63: 1.55%
  Area (%) of peak at RRT 2.01: 1.37%
  Area (%) of peak at RRT 2.05: 0.24%
  Total impurities by % area: 3.28%
[2]; 4 hours
  Area (%) at RRT 1.00 (5-azacytidine): 96.21%
  Area (%) of peak at RRT 0.63: 2.04%
  Area (%) of peak at RRT 2.01: 1.41%
  Area (%) of peak at RRT 2.05: 0.24%
  Total impurities by % area: 3.79%
[2]; 5 hours
  Area (%) at RRT 1.00 (5-azacytidine): 96.11%
  Area (%) of peak at RRT 0.63: 2.16%
  Area (%) of peak at RRT 2.01: 1.37%
  Area (%) of peak at RRT 2.05: 0.24%
  Total impurities by % area: 3.89%
[2]; 6 hours
  Area (%) at RRT 1.00 (5-azacytidine): 96.00%
  Area (%) of peak at RRT 0.63: 2.30%
  Area (%) of peak at RRT 2.01: 1.36%
  Area (%) of peak at RRT 2.05: 0.24%
  Total impurities by % area: 4.00%
[2]; 7 hours
  Area (%) at RRT 1.00 (5-azacytidine): 95.85%
  Area (%) of peak at RRT 0.63: 2.43%
  Area (%) of peak at RRT 2.01: 1.37%
  Area (%) of peak at RRT 2.05: 0.23%
  Total impurities by % area: 4.15%
[2]; 8 hours
  Area (%) at RRT 1.00 (5-azacytidine): 95.74%
  Area (%) of peak at RRT 0.63: 2.55%
  Area (%) of peak at RRT 2.01: 1.37%
  Area (%) of peak at RRT 2.05: 0.24%
  Total impurities by % area: 4.26%
[2]; 9 hours
  Area (%) at RRT 1.00 (5-azacytidine): 95.63%
  Area (%) of peak at RRT 0.63: 2.66%
  Area (%) of peak at RRT 2.01: 1.37%
  Area (%) of peak at RRT 2.05: 0.24%
  Total impurities by % area: 4.37%
[2]; 10 hours
  Area (%) at RRT 1.00 (5-azacytidine): 95.50%
  Area (%) of peak at RRT 0.63: 2.77%
  Area (%) of peak at RRT 2.01: 1.37%
  Area (%) of peak at RRT 2.05: 0.24%
  Total impurities by % area: 4.50%
[2]; 11 hours
  Area (%) at RRT 1.00 (5-azacytidine): 95.40%
  Area (%) of peak at RRT 0.63: 2.87%
  Area (%) of peak at RRT 2.01: 1.37%

Source: patent US20110288042A1, “STABLE HIGHLY PURE AZACITIDINE AND PREPARATION METHODS THEREFOR” (CHEMAGIS LTD., priority 2007, published 2011)
